Source: ChEMBL document CHEMBL1128445, “Antiinflammatory 4,5-diarylpyrroles. 2. Activity as a function of cyclooxygenase-2 inhibition” (J Med Chem, 1995)

What was measured:
Rattus norvegicus [1] = experiment: In vivo effective dose required for antiinflammatory activity in rat adjuvant arthritis model; format: functional
[2] = target: T1, Prostaglandin G/H synthase 1 (Ovis aries, UniProt P05979); experiment: Tested for inhibitory activity against Prostaglandin G/H synthase 1 from ovine
T1 sequence (P05979 whole entry): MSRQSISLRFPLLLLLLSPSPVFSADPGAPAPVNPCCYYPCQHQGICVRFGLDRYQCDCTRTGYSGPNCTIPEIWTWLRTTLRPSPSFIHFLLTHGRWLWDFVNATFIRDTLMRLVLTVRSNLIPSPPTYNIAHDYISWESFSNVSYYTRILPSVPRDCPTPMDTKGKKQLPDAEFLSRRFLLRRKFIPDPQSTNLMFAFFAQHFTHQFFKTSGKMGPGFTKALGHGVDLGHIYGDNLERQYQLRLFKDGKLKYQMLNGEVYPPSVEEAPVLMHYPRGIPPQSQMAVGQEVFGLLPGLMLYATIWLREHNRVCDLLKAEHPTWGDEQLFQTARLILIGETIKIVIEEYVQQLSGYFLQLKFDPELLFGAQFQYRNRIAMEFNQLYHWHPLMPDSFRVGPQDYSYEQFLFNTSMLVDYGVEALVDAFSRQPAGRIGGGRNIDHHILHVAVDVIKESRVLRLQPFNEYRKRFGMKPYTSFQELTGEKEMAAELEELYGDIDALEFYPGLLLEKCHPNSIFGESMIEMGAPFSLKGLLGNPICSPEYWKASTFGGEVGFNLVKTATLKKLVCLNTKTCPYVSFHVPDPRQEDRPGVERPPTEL

Rattus norvegicus [3] = experiment: The compound was tested for maximum blood level reached in rats at 15.9 uM/Kg after peroral administration.; format: ADME, organism-based; set-up: dose 15.9 uM/Kg, route oral; settings: in vivo, po
Rattus norvegicus [4] = experiment: The compound was tested for maximum blood level reached in rats at 15.9 uM/Kg after intravenous administration.; format: ADME, organism-based; set-up: dose 15.9 uM/Kg, route intravenous; settings: in vivo, 15.9 µmol/kg

IC50 [2]	Cmax (Rattus norvegicus [3]; 15.9 µmol/kg)	Cmax (Rattus norvegicus [4])	Cmax (Rattus norvegicus [3])	Structure (SMILES)	ED50 (Rattus norvegicus [1])
219 µM				CS(=O)(=O)c1ccc(-c2[nH]c(SC#N)cc2-c2ccc(F)cc2)cc1	10.47 µM
132 µM	3 uM l-1	2 uM l-1		CS(=O)(=O)c1ccc(-c2[nH]c(Br)cc2-c2ccc(F)cc2)cc1	2.66 µM
				CS(=O)(=O)c1ccc(-c2[nH]c(Br)c(Cl)c2-c2ccc(F)cc2)cc1	9.98 µM
				CC(=O)n1c(Br)cc(-c2ccc(F)cc2)c1-c1ccc(S(C)(=O)=O)cc1	82.95 µM
127 µM				CS(=O)(=O)c1ccc(-c2[nH]c(I)c(I)c2-c2ccc(F)cc2)cc1	72.82 µM
> 300 µM				CS(=O)(=O)c1ccc(-c2[nH]c(I)cc2-c2ccc(F)cc2)cc1	49.86 µM
767 µM				Cn1c(Br)c(Br)c(-c2ccc(F)cc2)c1-c1ccc(S(C)(=O)=O)cc1	8.54 µM
650 µM				Cn1c(Cl)c(Cl)c(-c2ccc(F)cc2)c1-c1ccc(S(C)(=O)=O)cc1	12.55 µM
580 µM				CS(=O)(=O)c1ccc(-c2[nH]c(C(=O)C(F)(F)F)cc2-c2ccc(F)cc2)cc1	47.16 µM
> 300 µM				Cn1ccc(-c2ccc(F)cc2)c1-c1ccc(S(C)(=O)=O)cc1	>303 µM
516 µM	1.5 uM l-1	2.9 uM l-1		Cn1c(Br)cc(-c2ccc(F)cc2)c1-c1ccc(S(C)(=O)=O)cc1	4.16 µM
> 300 µM				CS(=O)(=O)c1ccc(-c2[nH]c(S(C)(=O)=O)cc2-c2ccc(F)cc2)cc1	93.02 µM
20 µM				CS(=O)(=O)c1ccc(-c2[nH]c(Cl)c(Cl)c2-c2ccc(F)cc2)cc1	3.9 µM
44 µM				CS(=O)(=O)c1ccc(-c2[nH]c(Cl)c(Br)c2-c2ccc(F)cc2)cc1	7.93 µM
> 300 µM				CC(C)(C)OC(=O)n1c(Br)cc(-c2ccc(F)cc2)c1-c1ccc(S(C)(=O)=O)cc1	32 µM
373 µM			< 0.1 uM l-1	CS(=O)(=O)c1ccc(-c2[nH]ccc2-c2ccc(F)cc2)cc1	>317 µM
				CS(=O)(=O)c1ccc(-c2[nH]c([N+](=O)[O-])cc2-c2ccc(F)cc2)cc1	24.97 µM
94 µM	2.3 uM l-1	1.4 uM l-1		CS(=O)(=O)c1ccc(-c2[nH]c(Cl)cc2-c2ccc(F)cc2)cc1	
36 µM				CSc1cc(-c2ccc(F)cc2)c(-c2ccc(S(C)(=O)=O)cc2)[nH]1	4.89 µM
	2.9 uM l-1	4.1 uM l-1		CS(=O)(=O)c1ccc(-c2[nH]c(C#N)cc2-c2ccc(F)cc2)cc1	3.82 µM
				CC(=O)Oc1ccccc1C(=O)O [ASPIRIN]	1942.7 µM
				CC(C)Cc1ccc(C(C)C(=O)O)cc1 (stereo not given) [IBUPROFEN]	484.8 µM
				COc1ccc2c(c1)c(CC(=O)O)c(C)n2C(=O)c1ccc(Cl)cc1 [INDOMETHACIN]	0.84 µM
384 µM				CCCCC1C(=O)N(c2ccccc2)N(c2ccccc2)C1=O [PHENYLBUTAZONE]	32.4 µM
				CN1C(C(=O)Nc2ccccn2)=C(O)c2ccccc2S1(=O)=O [PIROXICAM]	1.3 µM
